Measured values from patent US5716928A, “Use of essential oils to increase bioavailability of oral pharmaceutical compounds” (priority 1995, dated 1998).

Tested on: rat cytochrome P450 3A
Settings: for % inhibition of cyclosporine metabolism, repeat 0.0001(SD) (Table 2) / % inhibition of cyclosporine metabolism, 0.0001% (Table 2): oil ingredient 0.0001 wt. %; for % inhibition of cyclosporine metabolism, repeat 0.0001(SD) (Table 2): repeat assay(s), SD in parentheses; for % inhibition of cyclosporine metabolism, 0.0001% (Table 2) / % inhibition of cyclosporine metabolism, 0.001% (Table 2) / % inhibition of cyclosporine metabolism, 0.01% (Table 2): from solvent baseline; for % inhibition of cyclosporine metabolism, 0.001% (Table 2): oil ingredient 0.001 wt. %; for % inhibition of cyclosporine metabolism, 0.01% (Table 2): oil ingredient 0.01 wt. %

| SMILES | % inhibition of cyclosporine metabolism, 0.0001% (Table 2) [%] | % inhibition of cyclosporine metabolism, 0.001% (Table 2) [%] | % inhibition of cyclosporine metabolism, 0.01% (Table 2) [%] | further results |
| --- | --- | --- | --- | --- |
| CC12CCC(CC1=O)C2(C)C (racemic) [Camphor-(±), 1,7,7-Trimethylbicyclo [2.2.1] heptan-2-one] | – | – | – | % inhibition of cyclosporine metabolism, repeat 0.001 (SD) (Table 2) (microsomes): 53(3) % |
| C=CC(C)(O)CCC=C(C)C (racemic) [Linalool-(±), 3,7-Dimethyl-1,6-octadien-3-ol] | 41 | 72.0 | 85 | % inhibition of cyclosporine metabolism, repeat 0.0001(SD) (Table 2): -7(9) % |
| CCC=CCC1C(=O)CCC1CC(=O)OC (racemic) [Methyl Jasmonate-(±), Methyl-3-oxo-2-(2-pentenyl)-cyclopentane acetate] | -27 | 65 | – | – |
| C=C1C2CCC(C2)C1(C)C (single isomer, unassigned) [Camphene-(+), 2,2-Dimethyl-3-methylenebicyclo[2.2.1]heptane] | -49 | 12.4 | – | – |
| C=C(C)C1CC=C(C)C(O)C1 (single isomer, unassigned) [Carveol-(-), p-Mentha-6,8-dien-2-ot] | 2 | 60 | – | – |
| CC=C(C)C=CC=C(C)C [Allo Ocimene, 2,6-Dimethyl-2,4,6-octatriene] | 6 | 22 | – | – |
| C/C=C/c1ccc(OC)cc1 [Anethole, trans-, 4-Propenylanisole] | – | 53 | 100 | – |
| O=C(/C=C/c1ccccc1)OCc1ccccc1 [Benzyl Cinnamate, Benzyl 3-phenylpropenoic acid] | 7 | -45 | – | – |
| COc1cc(CNC(=O)CCCC/C=C/C(C)C)ccc1O [Capsaicin, trans-8-Methyl-N-vanillyl-6 nonenamide] | 27 | 68 | – | – |
| Cc1ccc(C(C)C)cc1O [Carvacrol, 5-isoPropyl-2-methylphenol] | 11 | 93 | 97 | – |
| C=C(C)[C@@H]1CC=C(C)C(=O)C1 [Carvone-(R)-(-), p-Mentha-6,8-dien-2-one] | 27 | 69 | 100 | – |
| C=C(C)[C@H]1CC=C(C)C(=O)C1 [Carvone-(S)-(+), p-Mentha-6,8-dien-2-one] | 30 | 70.5 | – | – |
| C=C1CC/C=C(\C)CC[C@@H]2[C@@H]1CC2(C)C [Caryophyllene, trans-(-), β Caryophyllene] | 26 | 85 | – | – |
| O=C/C=C/c1ccccc1 [Cinnamic Aldehyde, trans-, 3-Phenylpropenaldehyde] | – | 29.0 | 78 | – |
| CC(C)=CCC/C(C)=C/C=O [Citral] | 44 | 54 | 99 | – |
| CC(C)=CCCC(C)CCO (stereo not drawn) [Citronellol-(DL)-(β), 3,7-Dimethyl-6-octen-1-ol] | 41 | 86 | 95 | % inhibition of cyclosporine metabolism, repeat 0.0001(SD) (Table 2): 35(4) % |
| C=CCc1ccc(OC)cc1 [Estragole, 4-Allylanisole] | 7 | 69.2 | 100 | – |
| CCOC(=O)/C=C/c1ccccc1 [Ethyl Cinnamate, trans-, Ethyl 3-phenylpropenoic acid] | -13 | -16 | – | – |
| CCOc1cc(C=O)ccc1O [Ethyl Vanillin, 3-Ethoxy-4-hydroxybenzaledhyde] | – | – | 58 | – |

| SMILES | % inhibition of cyclosporine metabolism, 0.0001% (Table 2) [%] | % inhibition of cyclosporine metabolism, 0.001% (Table 2) [%] | % inhibition of cyclosporine metabolism, 0.01% (Table 2) [%] | further results |
| --- | --- | --- | --- | --- |
| C=CCc1ccc(O)c(OC)c1 [Eugenol, 4-Allyl-2-methoxyphenol] | 9.8 | 66 | 100 | – |
| CC(C)=CCC/C(C)=C/CC/C(C)=C/CO [Farnesol. trans-, trans-, 3,7,11-Trimethyl-2,6,10-dodecatrien-1-ol] | 49 | 82 | – | – |
| CC1(C)[C@H]2CC[C@](C)(C2)[C@H]1O [Fenchol-(1R)-endo-(+), 1,3,3-Trimethylbicyclo [2.2.1] heptan-2-ol] | 18 | 74 | 100 | – |
| CC1(C)C(=O)[C@]2(C)CC[C@H]1C2 [Fenchone-(1R)-(-), 1,3,3-Trimethylbicyclo [2.2.1] heptan-2-one] | 14 | 38 | – | – |
| CC(=O)OC/C=C(\C)CCC=C(C)C [Geranyl Acetate, trans-3,7-Dimethyl-2,6-octadien-1-yl acetate] | – | 51.5 | 73 | – |
| CC/C=C\CC1=C(C)CCC1=O [Jasmone, cis-, 3-Methyl-2-(2-pentenyl)-2-cyclopenten-1-one] | 16.0 | 68 | – | – |
| CC(=O)N1CCN(c2ccc(OCC3COC(Cn4ccnc4)(c4ccc(Cl)cc4Cl)O3)cc2)CC1 (stereo not drawn) [Ketoconazole, reference compound] | – | – | – | % inhibition of cyclosporine metabolism, reference compound at 0.000001% (Table 3) (0.000001 %): 8%; % inhibition of cyclosporine metabolism, reference compound at 0.000005% (Table 3) (0.000005 %): 20%; % inhibition of cyclosporine metabolism, reference compound at 0.00001% (Table 3) (0.00001 %): 42%; % inhibition of cyclosporine metabolism, reference compound at 0.00005% (Table 3) (0.00005 %): 100% |
| C=C(C)[C@H]1CC=C(C)CC1 [Limonene-(R)-(+), p-Mentha-1,8-diene] | – | 20 | 84 | – |
| C=C(C)[C@@H]1CC=C(C)CC1 [Limonene-(S)-(-), p-Mentha-1,8-diene] | – | 30 | 82.3 | – |
| C=CC(C)(CCC=C(C)C)OC(C)=O (stereo not drawn) [Linalyl Acetate, 3,7-Dimethyl-1,6-octadien-3-yl acetate] | – | 55.8 | 100 | – |
| COC(=O)c1ccccc1N [Mcthyl Anthranilate, Methyl 2-aminobenzoate] | -7 | 23 | – | – |
| CC(C)[C@@H]1CC[C@@H](C)CC1=O [Menthone-(-), p-Menthan-3-one] | 14 | 52 | – | – |
| C=CC(=C)CCC=C(C)C [Myrcene-β, 7-Methyl-3-methylene-1,6-octadiene] | 0 | 13 | – | – |
| C=C1CC[C@H]2C[C@@H]1C2(C)C [Pinene-(1S)-(-)-β, 6,6-Dimethyl-2-methylenebicyclo[3.1.1]heptane] | -10 | 60 | 88 | – |
| CC(C)=C1CC[C@@H](C)CC1=O [Pulegone-(R)-(+), p-Menth-4(8)-en-3-one] | -17 | 31 | – | – |
| CC1=CCC(O)(C(C)C)CC1 (stereo not drawn) [Terpinen-4-ol, p-Menth-1-en-4-ol] | 3.81 | 80 | 100 | – |
| CC1=CC=C(C(C)C)CC1 [Terpinene-α, p-Mentha-1,3-diene] | -6 | 28 | – | – |
| CC1=CCC(C(C)(C)O)CC1 (stereo not drawn) [Terpineol-α, p-Menth-1-en-8-ol] | 13.4 | 86 | 100 | – |
